Test results: publication PMC11602115 (Journal of Medicinal Chemistry, 2017)

Legend:
Mouse PK (iv and oral) = format: in vivo, male CD-1 mice
Dog PK (iv and oral) = format: in vivo, Beagle dogs
Monkey PK (iv and oral) = format: in vivo, cynomolgus monkeys
[1] = iv PK in bile-duct cannulated (BDC) versus normal rats; format: in vivo, rat; conditions: iv administration
Text: One explanation for the prolonged exposure was the possibility of enterohepatic recirculation. […] A more definitive study was therefore conducted in bile-duct cannulated (BDC) rats.

EP1 = target: T1, EP1 (Homo sapiens, UniProt P34995); assay: Radioligand binding, EP1 ([3H]-PGE2); design: purchased MDS Pharma (Taiwan) and CEREP (France), contract assays; conditions: cloned human receptor; mean of two determinations
T1 sequence (P34995 1-402): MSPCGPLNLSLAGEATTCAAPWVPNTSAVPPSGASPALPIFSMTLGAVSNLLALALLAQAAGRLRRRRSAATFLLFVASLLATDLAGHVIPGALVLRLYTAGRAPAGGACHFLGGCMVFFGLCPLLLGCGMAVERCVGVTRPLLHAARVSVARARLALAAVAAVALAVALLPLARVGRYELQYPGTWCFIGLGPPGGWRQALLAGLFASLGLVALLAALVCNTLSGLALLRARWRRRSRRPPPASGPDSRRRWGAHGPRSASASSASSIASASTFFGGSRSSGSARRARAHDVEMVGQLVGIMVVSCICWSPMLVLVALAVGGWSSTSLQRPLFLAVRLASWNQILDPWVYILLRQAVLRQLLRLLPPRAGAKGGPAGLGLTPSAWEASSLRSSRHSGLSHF
Experimental: Additional (non-IP) receptor binding assays were carried out by MDS Pharma (Taiwan) and CEREP (France).

human platelet = assay: Inhibition of ADP-induced human platelet aggregation; format: cell-based; conditions: aggregation induced by 2.5 μM ADP, mean of at least two determinations
Experimental: Such aggregated and activated platelets produce vasoactive substances such as thromboxane and serotonin that may cause harmful vasoconstriction and vascular remodeling.[13] […] This secondary assay was carried out as previously described,[14] with aggregation induced by 2.5 μM ADP in the presence or absence of IP receptor agonists.

IP = IP (Homo sapiens, UniProt P43119); assay: Radioligand binding, human IP ([3H]-iloprost); design: expressed in transfected cells; host or cells: CHO-K1 (crude membranes); conditions: cloned human receptor; read-out: Ki IP ([3H]-iloprost)
Experimental: CHO-K1 cells expressing recombinant IP receptors were harvested, washed with ice-cold phosphate buffered saline, pH 7.4 (PBS), and then centrifuged at 48 000g for 20 min at 4 °C. The resulting cell pellet was then resuspended in ice-cold PBS containing 20 mM HEPES, pH 7.4, and 0.1 mM EDTA, homogenized on ice using a Brinkman Polytron, and centrifuged (48 000g for 20 min at 4 °C). This resuspension and centrifugation process was repeated one further time. Crude membrane pellets were stored at −80 °C until used for radioligand binding assays.
Assay incubations were terminated by rapid filtration through PerkinElmer GF/C filtration plates pretreated with 0.3% PEI, under vacuum pressure using a 96-well Packard filtration apparatus, followed by multiple washes with ice-cold wash buffer (PBS containing 20 mM HEPES and 0.1 mM EDTA, pH 7.4). Plates were then dried at 45 °C for a minimum of 2 h. Finally, 25 μL of BetaScint scintillation cocktail was added to each well and plates were counted in a Packard TopCount scintillation counter. In each competition study, test compounds were dosed at 10 concentrations with triplicate determinations at each test concentration.

Sequence of IP (P43119 whole entry): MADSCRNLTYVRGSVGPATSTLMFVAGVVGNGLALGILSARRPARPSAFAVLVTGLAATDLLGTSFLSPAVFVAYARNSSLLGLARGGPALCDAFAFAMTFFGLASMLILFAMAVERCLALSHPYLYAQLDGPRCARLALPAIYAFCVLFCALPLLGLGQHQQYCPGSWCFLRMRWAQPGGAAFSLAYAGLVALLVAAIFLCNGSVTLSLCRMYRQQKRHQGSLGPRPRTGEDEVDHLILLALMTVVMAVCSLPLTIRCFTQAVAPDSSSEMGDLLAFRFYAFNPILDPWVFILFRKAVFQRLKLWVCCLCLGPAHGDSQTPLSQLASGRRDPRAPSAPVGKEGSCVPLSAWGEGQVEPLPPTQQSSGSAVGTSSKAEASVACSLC

With `O=C(O)COC[C@H]1CC[C@H](COC(=O)N(c2ccccc2)c2ccc(Cl)cc2)CC1` [5c, Sodium 2-(((1r,4r)-4-(((4-Chlorophenyl)(phenyl)carbamoyloxy)methyl)cyclohexyl)methoxy)acetate] as the molecule, how does the T1/2 (Mouse PK (iv and oral); iv […]) read?
The T1/2 was 5.59 h.

What about the “AUC0–inf” value (Mouse PK (iv and oral); po 9.49 mg/kg) of the same molecule?
The value was 11500 ng·h/mL.

What about the Cmax (Mouse PK (iv and oral); po 9.49 mg/kg) of the same molecule?
Its Cmax is 4940 ng/mL.

And the F (Mouse PK (iv and oral); po 9.49 mg/kg)?
The F was 83.4%.

What about the T1/2 (Mouse PK (iv and oral); po 9.49 mg/kg) of the same molecule?
The T1/2 was 8.08 h.

And the Tmax (Mouse PK (iv and oral); po 9.49 mg/kg)?
Its Tmax is 0.250 h.

And the half-life (Dog PK (iv and oral); beagle, plasma, oral, 0.2 mg/kg, read-out: elimination half-life in dog (converted))?
The half-life was 10 h.

What about the “AUC0–inf” value (Dog PK (iv and oral); iv 0.2 mg/kg) of the same molecule?
Its value is 1050 ± 300 ng·h/mL.

And the Clobs (Dog PK (iv and oral); iv 0.2 mg/kg)?
The Clobs was 0.202 ± 0.057 L h^–1 kg^–1.

And the T1/2 (Dog PK (iv and oral); iv 0.2 mg/kg)?
Its T1/2 is 3.54 ± 0.42 h.

What about the “AUC0–inf” value (Dog PK (iv and oral); po 0.2 mg/kg) of the same molecule?
Its value is 719 ± 290 ng·h/mL.

What about the Cmax (Dog PK (iv and oral); po 0.2 mg/kg) of the same molecule?
Its Cmax is 327 ± 16 ng/mL.

What about the F (Dog PK (iv and oral); po 0.2 mg/kg) of the same molecule?
The F was 68.4%.

What about the T1/2 (Dog PK (iv and oral); po 0.2 mg/kg) of the same molecule?
Its T1/2 is 9.79 ± 0.94 h.

And the Tmax (Dog PK (iv and oral); po 0.2 mg/kg)?
The Tmax was 0.417 ± 0.144 h.

What about the “AUC0–inf” value (Dog PK (iv and oral); po 2 mg/kg) of the same molecule?
The value was 9750 ± 5270 ng·h/mL.

What about the Cmax (Dog PK (iv and oral); po 2 mg/kg) of the same molecule?
The Cmax was 3440 ± 900 ng/mL.

What about the F (Dog PK (iv and oral); po 2 mg/kg) of the same molecule?
The F was 92.9%.

And the T1/2 (Dog PK (iv and oral); po 2 mg/kg)?
Its T1/2 is 5.53 ± 1.48 h.

And the Tmax (Dog PK (iv and oral); po 2 mg/kg)?
Its Tmax is 0.833 ± 0.289 h.

What about the half-life (Monkey PK (iv and oral); cynomolgus monkey, plasma, oral, 0.1 mg/kg, read-out: elimination half-life in monkey (converted)) of the same molecule?
The half-life was 18 h.

What about the “AUC0–inf” value (Monkey PK (iv and oral); monkey, iv 0.1 mg/kg) of the same molecule?
Its value is 145 ± 95 ng·h/mL.

And the Clobs (Monkey PK (iv and oral); monkey, iv 0.1 mg/kg)?
The Clobs was 0.881 ± 0.579 L h^–1 kg^–1.

And the T1/2 (Monkey PK (iv and oral); monkey, iv 0.1 mg/kg)?
Its T1/2 is 24.2 ± 2.1 h.

What about the “AUC0–inf” value (Monkey PK (iv and oral); monkey, po 0.1 mg/kg) of the same molecule?
The value was 161 ± 116 ng·h/mL.

What about the Cmax (Monkey PK (iv and oral); monkey, po 0.1 mg/kg) of the same molecule?
Its Cmax is 12.1 ± 3.6 ng/mL.

And the F (Monkey PK (iv and oral); monkey, po 0.1 mg/kg)?
Its F is 98.7%.

And the T1/2 (Monkey PK (iv and oral); monkey, po 0.1 mg/kg)?
Its T1/2 is 17.5 ± 3.4 h.

And the Tmax (Monkey PK (iv and oral); monkey, po 0.1 mg/kg)?
The Tmax was 2.67 ± 2.89 h.

What about the “AUC0–inf” value (Monkey PK (iv and oral); monkey, po 0.5 mg/kg) of the same molecule?
Its value is 2900 ± 1350 ng·h/mL.

And the Cmax (Monkey PK (iv and oral); monkey, po 0.5 mg/kg)?
Its Cmax is 92.8 ± 29.7 ng/mL.

What about the F (Monkey PK (iv and oral); monkey, po 0.5 mg/kg) of the same molecule?
The F was greater than 100%.

And the T1/2 (Monkey PK (iv and oral); monkey, po 0.5 mg/kg)?
Its T1/2 is 38.7 ± 21.3 h.

And the Tmax (Monkey PK (iv and oral); monkey, po 0.5 mg/kg)?
Its Tmax is 4.17 ± 3.18 h.

And the “reduction in the apparent plasma half-life in BDC rats” value ([1]; BDC versus normal rats)?
Its value is 3 fold.

And the “concentrations in bile and urine compared to plasma” value ([1]; rat)?
The value was “negligible”.

What about the Ki (EP1) of the same molecule?
The Ki was 9600 nM.

For `O=C(O)COC[C@H]1CC[C@H](COC(=O)N(c2ccccc2)c2cccc(F)c2)CC1` [5g, 2-(((1r,4r)-4-(((3-Fluorophenyl)(phenyl)carbamoyloxy)methyl)cyclohexyl)methoxy)acetic Acid], which IC50 (human platelet) is on record?
The IC50 was 18 nM.

And the Ki (IP)?
The Ki was 7 nM.
